From US20180282279A1, “Pantothenamide Analogues” (Radboud Universitair Medisch Centrum, priority 2014, published 2018)
pIC50: −log10 of the molar value. In brackets after ≈: the same amount, converted by molar mass. Read-outs that look alike come from different tables or passages of the source.

Experiments:
[1] = system: Plasmodium falciparum NF54 parasites; assay: P. falciparum asexual blood stage replication assay (SYBR Green); format: cell-based; settings: NF54, 10% human serum, 72 incubation
Method: Compounds were tested on their ability to inhibit replication of the human malaria parasite Plasmodium falciparum. To this end, Plasmodium falciparum NF54 parasites were cultured in RPMI1640 medium supplemented with 367 μM hypoxanthine, 25 mM HEPES, 25 mM sodiumbicarbonate and 10% human type A serum in an automated large-scale culture system as described before (Transactions of the Royal Society of Tropical Medicine and Hygiene, 1982. 76: p. 812-818). Compounds were diluted in DMSO and subsequently in culture medium to reach a DMSO concentration of 0.2%. 50 μl of diluted compound was transferred to a black 96 well plate. A culture of P. falciparum strain NF54 malaria parasites was diluted to a parasitaemia of 0.5% and a hematocrit of 3%. 50 μl of this diluted culture was added to each well in the 96 well plate._The outermost wells of the plate were filled with sterile water to prevent evaporation. The established antimalarial dihydroartemisinin (DHA) in DMSO acted as a positive control (MIN signal), and 0.1% DMSO acted as a negative control (MAX signal). The plates were incubated for 72 at 37° C., 3% 02, 5% CO2, 93% N2. Changes in parasite replication relative to the controls were monitored using the DNA-marker SYBR Green as described previously (Antimicrob Agents Chemother 48:1803-6). Data were analyzed by logistic regression using the formula: Y=Bottom+(Top-Bottom)/(1+10̂((Log IC50−X)*HillSlope)) and a least squares method to find the best fit.
Using similar methods, IC50 values were determined for a variety of inverted pantothenamides, as listed in table 1 (see section: ‘Detailed description of the invention’)

[2] = system: S. aureus (SA), S. epidermidis (SE), S. pyogenes (SP), S. pneumoniae (SPn); assay: MIC for most sensitive bacterial species (panel); format: cell-based; settings: Table 1, no species named, read-out: MIC (μg/ml) for most sensitive bacterial species
Method: (§1) Strains of Escherichia coli, Staphylococcus aureus and Staphylococcus epidermidis, were grown overnight in 1% Bacto tryptone medium (BD, Sparks, Md.). Streptococcus pyogenes was grown overnight in Bacto Todd Hewitt Broth medium (BD, Sparks, Md.). Cultures were then diluted 1:1,000 in fresh assay medium supplemented with or without 20% fetal bovine serum (FBS; HyClone, Celbio, Logan, Utah) and added to 96-well sterile enzyme-linked immunosorbent assay (ELISA) plates (100 μl per well). The compounds to be tested were diluted in the medium without serum and added to the bacteria (100 μl per well). Plates were incubated at 37° C., and bacterial growth was monitored over time by reading the optical density at 490 nm using a microplate reader (model 450; Bio-Rad Laboratories Inc., Hercules, Calif.). Streptococcus pneumoniae strains were grown to mid-log phase (OD620 of 0.3) and stored in 15% glycerol at […] till further use. Minimal inhibitory concentration (MIC) of antibiotics was determined according to standard procedures. Bacteria were diluted 10-fold in Mueller-Hinton medium (BD, Sparks, Md.) and added to 96-well sterile ELISA plates (150 μl per well). The compounds to be tested were diluted in the medium without serum and added to the bacteria (150 μl per well). Plates were incubated overnight at 37° C. in 5% CO2. The MIC was defined as the lowest concentration of compound at which no growth was visible with the naked eye.

[3] = system: Streptococcus pyogenes; assay: Bacterial growth assay and MIC determination, S. pyogenes; format: cell-based; settings: Streptococcus pyogenes; Table 1; most sensitive species S. pyogenes (SP); read-out: MIC (μg/ml) for most sensitive bacterial species
Method: as §1

[4] = system: Staphylococcus epidermidis; assay: Bacterial growth assay and MIC determination, S. epidermidis; format: cell-based; settings: Staphylococcus epidermidis; Table 1; most sensitive species S. epidermidis (SE); read-out: MIC (μg/ml) for most sensitive bacterial species
Method: as §1

[5] = system: P. falciparum gametocytes; assay: microbe, parasite or virus in culture; format: cell-based, Plasmodium falciparum; settings: Plasmodium falciparum; 72 hour incubation; read-out: Gametocyte viability (pLDH) IC50
Method: Compounds were tested for their ability to affect the viability of gametocytes, the sexually committed blood stages of P. falciparum that underlie transmission to the mosquito vector. To this end, two different assays were performed. The first assay monitored pLDH activity as a measure of viability of gametocytes (J Antimicrob Chemother. 2013 September; 68(9):2048-58). The second assay monitored the ability of gametocytes to form a female gamete by detection of the gamete-specific marker Pfs25. Plasmodium falciparum NF54 parasites were cultured in RPMI1640 medium supplemented with 367 μM hypoxanthine, 25 mM HEPES, 25 mM sodiumbicarbonate and 10% human type A serum in an automated large-scale culture system as described before (Transactions of the Royal Society of Tropical Medicine and Hygiene, 1982. 76: p. 812-818). Cultures were treated with 50 mM N-acetyl-D-glucosamine from day 4 till day 9 to kill asexual parasites. On day 11 gametocytes were isolated by discontinuous 63% Percoll gradient centrifugation. Compounds were diluted in DMSO and subsequently in culture medium to reach a DMSO concentration of 0.2%. To measure the effect of compounds of pLDH activity, gametocytes were seeded at a density of 3.5×10^4 gametocytes per well in a black 384 well plate in 30 μl of culture medium, and 30 μl of diluted compound was added. Following a 72 hour incubation at 37° C., 98% humidity, 93% N2, 4% CO2 and 3% O2, gametocyte viability was measured by a modified plasmodium lactate dehydrogenase assay by using resazurin as a substrate as previously described (Nature, 2013. 504(7479): p. 248-53). Assays were performed in quadruplicate (two different plates with two different gametocyte batches) and all plates included controls MIN (1 μM DHA), MAX (0.1% DMSO) and a serial dilution of reference compound dihydroartemisinin (DHA).

[6] = system: P. falciparum gametocytes; assay: Gametocyte female gametogenesis capacity assay (Pfs25 AlphaLISA); format: cell-based; settings: Plasmodium falciparum; 72 hours incubation, Table 3; read-out: Gametocyte gametogenesis capacity (Pfs25) IC50
Method: To monitor compound effects on the ability of a gametocyte to form a female gamete, day 11 (stage IV) gametocytes were seeded at a density of 4×10^5 gametocytes per well in a V-bottom plate in 50 μl culture medium. 50 μl of diluted compound was added to the gametocytes (0.1% DMSO final concentration) and plates were incubated for 72 hours at 37° C., 98% humidity, 93% N2, 4% CO2 and 3% O2. Subsequently, gametogenesis was induced by adding xanthurenic acid to a final concentration of 40 μM and plates were incubated for 16 hours at 20° C. Gametes were detected in a homogeneous proximity immunoassay on basis of Pfs25 expression by use of AlphaLISA technology (Perkin Elmer). All steps were performed at 20° C. Gametes were washed twice with PBS, lysed for 15 min in 10 μl 10 mM Tris pH 8.0/1% laurylsarcosyl/1 mM phenylmethanesulfonyl fluoride and combined with 10 μl 5 nM biotinylated mouse anti-Pfs25 monoclonal antibody 32F6244 in a white 384 well optiplate (Perkin Elmer). After 1 hour incubation 15 μl of 33 μg/ml acceptorbeads coated with mouse anti-Pfs25 monoclonal antibody 32F81 were added. After 1 hour incubation, 15 μl 33 μg/ml Streptavidin-conjugated donorbeads were added. Finally, after 1 hour incubation luminescence signals were monitored at the 615 nm emission wavelength following excitation at 680 nm using a fluorometer (Biotek Synergy 2). All compounds were tested in duplicate (24 hr) or triplicate (1 and 72 hr). Controls included MIN (0.1 μM epoxomicin) and MAX (0.1% DMSO). Data were analyzed by logistic regression using the formula: Y=Bottom+(Top−Bottom)/(1+10̂((Log IC50−X)*HillSlope)) and a least squares method to find the best fit.

[7] = system: Staphylococcus aureus; assay: Bacterial growth assay and MIC determination, S. aureus; format: cell-based; settings: Staphylococcus aureus, Table 1; most sensitive species S. aureus (SA); read-out: MIC (μg/ml) for most sensitive bacterial species
Method: as §1

Structure (SMILES): CC(C)(CO)[C@@H](O)C(=O)NCCCNC(=O)CCc1ccccc1 [CXP18.6-010]
- IC50 [1]: 7.5 µM
- MIC ([2]; tested for SA, SE, SP and SPn): > 32 µg/mL

Structure (SMILES): CC(C)(CO)[C@@H](O)C(=O)NCCNC(=O)CCc1cccc(F)c1 [CXP18.6-018]
- IC50 [1]: 0.1 µM
- MIC [3]: 16 µg/mL (≈ 47 µM)

Structure (SMILES): CC(C)(CO)[C@@H](O)C(=O)NCCNC(=O)CCc1ccc(F)cc1 [CXP18.6-019]
- IC50 [1]: 0.42 µM
- MIC [4]: 32 µg/mL (≈ 94 µM)

Structure (SMILES): COc1ccc(CCC(=O)NCCNC(=O)[C@H](O)C(C)(C)CO)cc1 [CXP18.6-022]
- IC50 [1]: 1 µM
- MIC ([2]; tested for SA, SE, SP and SPn): > 32 µg/mL

Structure (SMILES): CC(C)(CO)[C@@H](O)C(=O)NCCNC(=O)CCc1ccccc1Cl [CXP18.6-027]
- IC50 [1]: 0.58 µM
- MIC ([2]; tested for SA, SE, SP and SPn): > 32 µg/mL

Structure (SMILES): CC(C)(CO)[C@@H](O)C(=O)NCCNC(=O)CCc1ccc(Cl)cc1 [CXP18.6-028]
- IC50 [1]: 0.19 µM
- MIC ([2]; tested for SA, SE, SP and SPn): > 32 µg/mL

Structure (SMILES): CC(C)(CO)[C@@H](O)C(=O)NCCNC(=O)CCc1ccccc1C(F)(F)F [CXP18.6-038]
- IC50 [1]: 6.4 µM
- MIC [4]: 32 µg/mL (≈ 82 µM)

Structure (SMILES): CC(C)(CO)[C@@H](O)C(=O)NCCNC(=O)CCc1ccc(C(F)(F)F)cc1 [CXP18.6-042]
- IC50 [1]: 0.21 µM
- MIC ([2]; tested for SA, SE, SP and SPn): > 32 µg/mL

Structure (SMILES): CC(C)(C)c1ccc(CCC(=O)NCCNC(=O)[C@H](O)C(C)(C)CO)cc1 [CXP18.6-043]
- IC50 [1]: 0.15 µM
- MIC ([2]; tested for SA, SE, SP and SPn): > 32 µg/mL

Structure (SMILES): CC(C)(CO)[C@@H](O)C(=O)NCCNC(=O)CCc1ccsc1 [CXP18.6-046]
- IC50 [1]: 0.057 µM
- MIC [3]: 32 µg/mL (≈ 97.4 µM)
- pIC50 [5]: < 5.00
- pIC50 [6]: 6.40

Structure (SMILES): CC(C)(CO)[C@@H](O)C(=O)NCCNC(=O)CCc1cccs1 [CXP18.6-047]
- IC50 [1]: 0.1 µM
- MIC [3]: 8 µg/mL (≈ 24.4 µM)
- pIC50 [5]: < 5.00
- pIC50 [6]: 6.77

Structure (SMILES): CC(C)(CO)[C@@H](O)C(=O)NCCNC(=O)/C=C/c1ccccc1 [CXP18.6-048]
- IC50 [1]: 2.2 µM
- MIC [4]: 16 µg/mL (≈ 49.9 µM)

Structure (SMILES): CC(C)(CO)[C@@H](O)C(=O)NCCNC(=O)CCc1ccccn1 [CXP18.6-055]
- IC50 [1]: 1.6 µM
- MIC [4]: 32 µg/mL (≈ 99 µM)

Structure (SMILES): CC(C)(CO)[C@@H](O)C(=O)NCCNC(=O)CCc1ccncc1 [CXP18.6-056]
- IC50 [1]: 0.47 µM
- MIC ([2]; Streptococcus pneumoniae, marked *: not tested for S. pneumoniae): > 32 µg/mL

Structure (SMILES): CC(C)(CO)[C@@H](O)C(=O)NCCNC(=O)CCc1ccco1 [CXP18.6-057]
- IC50 [1]: 0.4 µM
- MIC [7]: 16 µg/mL (≈ 51.2 µM)
- MIC [4]: 16 µg/mL (≈ 51.2 µM)

Structure (SMILES): CC(C)(CO)[C@@H](O)C(=O)NCCNC(=O)CCc1ccc(F)cc1F [CXP18.6-069]
- IC50 [1]: 0.11 µM
- MIC [4]: 4 µg/mL (≈ 11.2 µM)

Structure (SMILES): C[C@@H](CNC(=O)[C@H](O)C(C)(C)CO)NC(=O)CCc1ccccc1F [MMV689258]
- IC50 [1]: 0.004 µM
- MIC ([2]; tested for SA, SE, SP and SPn): > 32 µg/mL

Structure (SMILES): C[C@H](CNC(=O)[C@H](O)C(C)(C)CO)NC(=O)CCc1ccccc1F [MMV689260]
- IC50 [1]: 0.21 µM
- MIC ([2]; tested for SA, SE, SP and SPn): > 32 µg/mL
